Laboratory results reported in patent publication US8362000B2, “Azetidinyl diamides as monoacylglycerol lipase inhibitors” (Janssen Pharmaceutica NV, priority 2009, dated 2013).
Residue numbers refer to the chain shown, from its start. pIC50, pKd: −log10 of the molar value. Where two headings read alike, the source gives them in different places.

Columns and labels:
[1] = target: T1, MGL (Rattus norvegicus, UniProt Q8R431); test: 2-AG accumulation assay in rat brain homogenate; format: biochemical; conditions: rat brain homogenate, 2-AG accumulation as percent of vehicle; for 2-AG accumulation, % of vehicle control at 0.01 µM: compound 0.01 μM, read-out: Rat Brain 2AG % VehCntrl (%) @ 0.01 μM; for 2-AG accumulation, % of vehicle control at 0.1 µM: compound 0.1 μM, read-out: Rat Brain 2AG % VehCntrl (%) @ 0.1 μM; for 2-AG accumulation, % of vehicle control at 1 µM: read-out: Rat Brain 2AG % VehCntrl (%) @ 1 μM; for 2-AG accumulation, % of vehicle control at 10 µM: compound 10 μM, read-out: Rat Brain 2AG % VehCntrl (%) @ 10 μM
T1 construct: one g rat brain was homogenized using a Polytron homogenizer; from tissue; host or cells: rat brain homogenate
T1 sequence (Q8R431 1-303): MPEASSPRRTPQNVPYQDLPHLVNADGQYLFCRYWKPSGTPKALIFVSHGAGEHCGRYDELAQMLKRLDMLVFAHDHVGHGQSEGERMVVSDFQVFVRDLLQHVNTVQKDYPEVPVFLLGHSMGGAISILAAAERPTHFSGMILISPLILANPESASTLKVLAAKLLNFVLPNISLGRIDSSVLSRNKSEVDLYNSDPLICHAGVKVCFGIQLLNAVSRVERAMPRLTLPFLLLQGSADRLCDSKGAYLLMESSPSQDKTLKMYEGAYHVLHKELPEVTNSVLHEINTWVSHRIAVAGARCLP

[2] = target: T2, mutant MGL (Homo sapiens, UniProt Q99685, L169S/L176S); test: MGL ThermoFluor assay - mutant; format: binding
T2 sequence (Q99685 1-303 L169S/L176S): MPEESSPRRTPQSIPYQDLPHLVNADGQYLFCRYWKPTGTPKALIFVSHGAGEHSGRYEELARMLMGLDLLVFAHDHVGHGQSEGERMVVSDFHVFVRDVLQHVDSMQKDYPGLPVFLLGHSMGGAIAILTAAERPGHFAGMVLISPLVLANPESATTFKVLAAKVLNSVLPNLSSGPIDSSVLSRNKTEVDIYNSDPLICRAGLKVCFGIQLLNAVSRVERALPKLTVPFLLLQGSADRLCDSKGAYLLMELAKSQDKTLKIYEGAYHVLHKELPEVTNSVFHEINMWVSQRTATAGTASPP

[3] = test system: CFA-induced paw radiant heat hypersensitivity; test: CFA-induced paw radiant heat hypersensitivity; format: in vivo, rat; conditions: 30 mg/kg p.o., HPβCD, last time point 180 or 300 min; for inhibition in vivo at 30 mg/kg: Rattus norvegicus, po
Method: Each rat was placed in a test chamber on a warm glass surface and allowed to acclimate for approximately 10 min. A radiant thermal stimulus (beam of light) was then focused through the glass onto the plantar surface of each hind paw in turn. The thermal stimulus was automatically shut off by a photoelectric relay when the paw was moved or when the cut-off time was reached (20 sec for radiant heat at ˜5 amps). An initial (baseline) response latency to the thermal stimulus was recorded for each animal prior to the injection of complete Freund's adjuvant (CFA). […] Immediately following the post-CFA latency assessment, the indicated test compound or vehicle was administered orally.
The percent reversal (% R) of hypersensitivity was calculated in one of two different ways: 1) using group mean values or 2) using individual animal values. More specifically:
Method 2. For some compounds, the % R of hypersensitivity was calculated separately for each animal according to the following formula: % reversal=[(individual treatment response−individual CFA response)/(individual baseline response−individual CFA response)]×100. Results are given as a mean of the maximum % reversal values calculated for each individual animal.

[4] = target: T3, purified wild type MGL (wt-MGLL 6H-11-313) (Homo sapiens, UniProt Q99685)
T3 sequence (Q99685 1-303): T2 sequence (Q99685 1-303 L169S/L176S) with S169L, S176L

[5] = ThermoFluor concentration-response, read-out: MGL mutant ThermoFluor Kd
[6] = group mean values, read-out: CFA thermal hypersensitivity Method 1: peak % reversal
[7] = individual animal values, read-out: CFA thermal hypersensitivity Method 2: peak % reversal
[8] = ThermoFluor thermal stability binding assay, read-out: MGL mutant ThermoFluor Kd

2-AG accumulation, % of vehicle control at 0.01 µM [1] [%]	2-AG accumulation, % of vehicle control at 0.1 µM [1] [%]	2-AG accumulation, % of vehicle control at 1 µM ([1]; compound 1 μM) [%]	2-AG accumulation, % of vehicle control at 10 µM [1] [%]	pKd [2, 5]	pIC50 [4]	pKd [2, 8]	pKd ([2]; compound concentration measured by qNMR, read-out: MGL mutant ThermoFluor qKd (using qNMR conc.))	Kd ([2]; ThermoFluor, compound concentration measured by qNMR, read-out: MGL mutant ThermoFluor qKd (μM) (using qNMR conc.)) [µM]	SMILES	inhibition in vivo at 30 mg/kg [3, 6] [%]	inhibition in vivo at 30 mg/kg [3, 7] [%]	Rat Brain 2AG % VehCntrl (%) @ 1 μM ([1]; compound 1 μM) [%]	pKd ([2]; MGL mutant ThermoFluor Kd, ThermoFluor concentration-response)	pKd ([2]; MGL mutant ThermoFluor qKd (using qNMR conc.), compound concentration measured by qNMR)	CFA thermal hypersensitivity Method 1: peak % reversal ([3]; group mean values) [%]
119	235	790	950	7.98	8.05	–	–	–	Cc1nc(-c2ccc(Cl)cc2)sc1C(=O)N1CC(N2CCN(C(=O)c3nccs3)CC2)C1 [Cpd 489, 1-(1-{[2-(4-Chlorophenyl)-4-methyl-1,3-thiazol-5-yl]carbonyl}azetidin-3-yl)-4-(1,3-thiazol-2-ylcarbonyl)piperazine]	27.1	43.5	–	–	–	–
–	–	586	–	7.92	> 8.30	–	–	–	O=C(c1ccc2c(ccn2-c2ccc(F)c(F)c2)c1)N1CC(N2CCN(C(=O)c3ccc[nH]3)CC2)C1 [Cpd 1366, 1-(3,4-Difluorophenyl)-5-({3-[4-(1H-pyrrol-2-ylcarbonyl)piperazin-1-yl]azetidin-1-yl}carbonyl)-1H-indole]	47.1	–	–	–	–	–
–	–	628	–	7.85	> 8.30	–	–	–	O=C(c1ccc2c(ccn2-c2ccc(F)c(F)c2)c1)N1CC(N2CCN(C(=O)c3cscn3)CC2)C1 [Cpd 1363, 1-(3,4-Difluorophenyl)-5-({3-[4-(1,3-thiazol-4-ylcarbonyl)piperazin-1-yl]azetidin-1-yl}carbonyl)-1H-indole]	69.7	–	–	–	–	–
–	–	761	–	9.00	> 8.30	–	–	–	O=C(c1ccc2c(-c3ccc(C(F)(F)F)cc3)c[nH]c2c1)N1CC(N2CCN(C(=O)c3nccs3)CC2)C1 [Cpd 1340]	13.1	–	–	–	–	–
–	–	581	–	8.70	8.05	–	8.70	–	Cc1c(C(=O)N2CC(N3CCN(C(=O)c4ccc[nH]4)CC3)C2)sc2cc(C(F)(F)F)ccc12 [Cpd 657, 1-(1-{[3-Methyl-6-(trifluoromethyl)-1-benzothiophen-2-yl]carbonyl}azetidin-3-yl)-4-(1H-pyrrol-2-ylcarbonyl)piperazine]	66	–	–	–	–	–
–	–	654	–	7.77	7.57	–	–	–	O=C(c1ccc2c(ccn2-c2ccc(F)cc2F)c1)N1CC(N2CCN(C(=O)c3cscn3)CC2)C1 [Cpd 1139, 1-(2,4-Difluorophenyl)-5-({3-[4-(1,3-thiazol-4-ylcarbonyl)piperazin-1-yl]azetidin-1-yl}carbonyl)-1H-indole]	43.8	–	–	–	–	–
–	–	359	–	–	7.89	8.70	–	0.003	O=C(c1cscn1)N1CCN(C2CN(C(=O)c3sc4cc(C(F)(F)F)c(F)cc4c3Cl)C2)CC1 [Cpd 666]	-3.1	–	–	–	–	–
–	–	551	–	–	8.10	8.22	–	–	O=C(c1ccc(-c2cccc(C(F)(F)F)c2)c(F)c1)N1CC(N2CCN(C(=O)c3cscn3)CC2)C1 [Cpd 1070, 1-(1-{[2-Fluoro-3′-(trifluoromethyl)biphenyl-4-yl]carbonyl}azetidin-3-yl)-4-(1,3-thiazol-4-ylcarbonyl)piperazine]	25.7	23.1	–	–	–	–
–	–	891	–	8.52	7.72	–	–	–	Cc1c(C(=O)N2CC(N3CCN(C(=O)c4cscn4)CC3)C2)sc2cc(C(F)(F)F)ccc12 [Cpd 674, 1-(1-{[3-Methyl-6-(trifluoromethyl)-1-benzothiophen-2-yl]carbonyl}azetidin-3-yl)-4-(1,3-thiazol-4-ylcarbonyl)piperazine]	57.7	–	–	–	–	–

Second part, the compound before the results:

SMILES	2-AG accumulation, % of vehicle control at 0.01 µM [1] [%]	2-AG accumulation, % of vehicle control at 0.1 µM [1] [%]	2-AG accumulation, % of vehicle control at 1 µM ([1]; compound 1 μM) [%]	2-AG accumulation, % of vehicle control at 10 µM [1] [%]	pKd [2, 5]	pIC50 [4]	pKd [2, 8]	pKd ([2]; compound concentration measured by qNMR, read-out: MGL mutant ThermoFluor qKd (using qNMR conc.))	Kd ([2]; ThermoFluor, compound concentration measured by qNMR, read-out: MGL mutant ThermoFluor qKd (μM) (using qNMR conc.)) [µM]	inhibition in vivo at 30 mg/kg [3, 6] [%]	inhibition in vivo at 30 mg/kg [3, 7] [%]	Rat Brain 2AG % VehCntrl (%) @ 1 μM ([1]; compound 1 μM) [%]	pKd ([2]; MGL mutant ThermoFluor Kd, ThermoFluor concentration-response)	pKd ([2]; MGL mutant ThermoFluor qKd (using qNMR conc.), compound concentration measured by qNMR)	CFA thermal hypersensitivity Method 1: peak % reversal ([3]; group mean values) [%]
C/C(=C\c1ccc(Cl)cc1)c1c(C)c(C(=O)N2CC(N3CCN(C(=O)c4nccs4)CC3)C2)nn1-c1ccc(Cl)cc1Cl [Cpd 1010]	–	–	–	–	–	> 8.30	–	–	–	–	–	1953	7.77	7.40	23.4
O=C(c1cscn1)N1CCN(C2CN(C(=O)c3ccc(-c4cccc(C(F)(F)F)c4)cc3Cl)C2)CC1 [Cpd 251, 1-(1-{[3-Chloro-3′-(trifluoromethyl)biphenyl-4-yl]carbonyl}azetidin-3-yl)-4-(1,3-thiazol-4-ylcarbonyl)piperazine]	–	144	586	791	–	7.77	7.84	–	–	35.1	38.5	–	–	–	–
O=C(c1ccc(-c2cccc(C(F)(F)F)c2)cc1)N1CC(N2CCN(C(=O)c3cscn3)CC2)C1 [Cpd 229, 1-(1,3-Thiazol-4-ylcarbonyl)-4-(1-{[3′-(trifluoromethyl)biphenyl-4-yl]carbonyl}azetidin-3-yl)piperazine]	–	276	552	–	–	> 8.30	7.90	–	–	55.8	56.6	–	–	–	–
Cc1cc(-c2cccc(C(F)(F)F)c2)ccc1C(=O)N1CC(N2CCN(C(=O)c3cscn3)CC2)C1 [Cpd 240, 1-(1-{[3-Methyl-3′-(trifluoromethyl)biphenyl-4-yl]carbonyl}azetidin-3-yl)-4-(1,3-thiazol-4-ylcarbonyl)piperazine]	–	184	538	639	–	7.29	7.63	–	–	43	44.4	–	–	–	–
O=C(c1ccccc1)N1CCN(C2CN(C(=O)c3sc4cc(Br)ccc4c3Cl)C2)CC1 [Cpd 331]	–	–	310	–	–	7.34	8.16	–	–	14.3	–	–	–	–	–
O=C(c1ccccc1)N1CCN(C2CN(C(=O)c3ccc(-c4ccc(Cl)c(Cl)c4)cc3)C2)CC1 [Cpd 39, 1-{1-[(3′,4′-Dichlorobiphenyl-4-yl)carbonyl]azetidin-3-yl}-4-(phenylcarbonyl)piperazine]	–	173	168	277	7.60	7.83	–	–	–	39.1	39.7	–	–	–	–
O=C(c1ccc(-c2ccccc2)cc1)N1CC(N2CCN(C(=O)c3nccs3)CC2)C1 [Cpd 9, 1-[1-(Biphenyl-4-ylcarbonyl)azetidin-3-yl]-4-(1,3-thiazol-2-ylcarbonyl)piperazine]	99	184	529	–	8.61	7.76	–	–	–	75.4	77.4	–	–	–	–
